{
  "source": "patent US10369123B2",
  "about": "“Perk activator for the treatment of neurodegenerative diseases” (DEUTSCHES ZENTRUM FÜR NEURODEGENERATIVE ERKRANKUNGEN E.V. …, priority 2014, dated 2019)",
  "key": {"tau": {"tested_on": "tau", "experiment": "Western blot of tau conformation and phosphorylation, annonacin model", "assay_type": "cell-based, human", "settings": "annonacin 25 nM + PERK activator, 48 h", "description": "(§1) Nunc™ Nunclon™ Delta 6-well (for protein and mRNA) or 48-well (for cell assays) plates (Thermo Fisher Scientific, Waltham, Mass., USA) were coated with 100 μg/ml poly-L-lysine (Sigma-Aldrich, St. Louis, Mo., USA) and 5 μg/ml fibronectin (Sigma-Aldrich). LUHMES (Lund Human Mesencephalic) cells, derived from human embryonic ventral mesencephalic cells by conditional immortalization (Tet-off v-myc over-expression) were seeded out in a concentration of 130,000 cells/cm^2 to achieve a confluence of 50%. They were then differentiated for 8 days in a medium of DMEM/F12 (Sigma-Aldrich), 1 μg/ml tetracycline, […] and 490 μg/ml dbcAMP into post-mitotic neurons with a dopaminergic phenotype (Lotharius et al. 2005).\n(§2) For all experiments with annonacin, the medium was replaced during the intoxication period with new medium containing glucose levels reduced to 250 μM, i.e. the physiological concentration in the human brain.\nProtein was extracted by scraping the cells from the culture plate with Mammalian Protein Extraction Reagent (M-PER, Thermo Fisher Scientific) and 1× cOmplete Protease Inhibitor Cocktail Tablets (Hoffmann-La Roche, Basel, Switzerland) and 1× PhosSTOP Phosphatase Inhibitor Cocktail Tablets (Hoffmann-La Roche). For pNRF2 blots, cells were extracted with 2% SDS tris-buffer instead of M-PER in order to obtain whole cell extracts and not to lose the nuclear fraction. The protein solution was frozen at −80° C., immediately after retrieval, for a minimum of two hours. The solution was then thawed on ice, vortexed, centrifuged at 5000 g for 15 min at 4° C. and the supernatant retrieved. Protein concentrations were determined using the BCA kit (Thermo Fisher Scientific) by heating the samples at 60° C. for 30 min and measuring the absorption on the NanoDrop 2000c Spectrophotometer (Thermo Fisher Scientific).\n20 μg of protein (unless indicated otherwise) were adjusted to equal concentrations between samples by dilution with M-PER and subsequently heated at 95° C. for 5 minutes with Roti®-Load 1 (Carl Roth). SDS-PAGE was performed using Any kD™ Mini-PROTEAN® TGX™ Gels (BioRad, Berkeley, Calif., USA) in a tris-glycine running buffer. The protein was blotted onto PVDF membrane (BioRad) at 70 V for 65 minutes on ice. The membrane was blocked with 1× Roti®-Block solution (Carl Roth) for 1 h and then incubated at 4° C. overnight under gentle shaking with the primary antibody (see Table 5) in TBS with 5% BSA (Cell Signaling Technology) and 0.05% TWEEN (Sigma-Aldrich).\nThe membranes were then washed and incubated with the species specific HRP-bound secondary antibody (Vector Laboratories, Burlingame, Calif., USA) at 1:2500 in 1× Roti®-Block solution for 2 h, followed by further washing and exposure to Clarity Western ECL Substrate (BioRad) or, in the case of MC1 and 4R-tau, to Amersham™ ECL™ Prime (GE Healthcare). Chemiluminescence was detected with the Gel Doc™ XR System (BioRad) and analyzed with Image Lab™ software (BioRad), followed by graphical and statistical analysis with Prism 6 (GraphPad Software)."}, "[1]": {"tested_on": "3R/4R MAPT mRNA, splicing factor SRSF2", "experiment": "Quantitative PCR of MAPT isoforms and splicing factors, annonacin model", "assay_type": "cell-based, human", "settings": "annonacin + PERK activator", "description": "as §1, §2\nRNA from human tissue samples was extracted by grinding the tissue in liquid nitrogen to a powder and then dissolving it in the RA1 buffer supplied as part of the NucleoSpin® RNA (Macherey Nagel) RNA extraction kit+1% (v/v) 2-mercaptoethanol (Sigma-Aldrich). RNA from cells was extracted by scraping the cells from the culture plate with RA1 buffer+1% (v/v) 2-mercaptoethanol. The remaining extraction procedure was according to the manufacturer's instructions for the NucleoSpin® RNA kit. RNA concentrations were determined using the NanoDrop 2000c Spectrophotometer. The RNA was then transcribed into cDNA with the iScript™ cDNA Synthesis Kit (BioRad) using the manufacturer's instructions. Real-Time PCR was performed on the Applied Biosystems® StepOnePlus™ (Life Technologies) system using TagMan® Universal Master Mix II and TaqMan® primers against total MAPT, MAPT 3R, MAPT 4R, EIF2A, EI2AK3 and ATF4. POL2A and PSCM1 served as reference targets as they were determined to be the most stably expressed across experimental conditions. The results were analyzed using the StepOne Plus software (Life Technologies) and Qbase software (Biogazelle) and were then graphically and statistically analyzed with Prism 6 (GraphPad Software). Absolute quantification was performed by creating a standard curve with plasmids containing either the 2N3R or the 2N4R spliced variant of MAPT (see Table 2). The absolute quantity was computed by deriving the relationship between CT values and absolute quantity with the StepOne Plus software."}, "[2]": {"tested_on": "wild type and P301S tau mice", "assay_type": "in vivo, mouse", "description": "All animal work was conducted either on CR57BL/6 mice, obtained from Charles River Laboratories, Wilmington, Mass., USA, or on homozygous transgenic mice overexpressing human tau with the P301S mutation on a C57BL/6 background, originally developed by Michel Goedert (Xu et al. 2014), obtained by own breeding. Animals were kept at 23±1° C. under standard 12 h light-dark cycle with free access to food and water. They were handled according to the EU Council Directive 2010/63/EU, the Guide for the Care and Use of Laboratory Animals (National Research Council 2011) and the guidelines of the local institutional committee. The experiments were authorized by the local authority “Regierung von Oberbayern” under application number 55.2-1-54-2532-165-13. […]\nFor the efficacy trial in the early disease stage (Xu et al. 2014), P301S mice (n=8 per group) and wild type littermates (n=9 per group) received once daily i.p. injections of 2 mg/kg CCT020312 or equivalent volumes of saline from 9 to 14 weeks of age; they were analyzed with the Morris Water Maze in the 15th week of age.\nFor the efficacy trial in the late disease stage (Xu et al. 2014), P301S mice and wild type littermates received once daily i.p. injections of 2 mg/kg CCT020312 or saline from 17 to 22 weeks of age (n=12 for CCT020312 treated P301S mice, n=9 for other groups); they were analyzed with the Rotarod test in the 23rd week of age."}},
  "note": "Entries after “also recorded” stand apart in the source; their conditions may differ. Where two headings read alike, the source gives them in different places.",
  "data": [
    {"smiles": "CCN(CC)CCC(=O)N1N=C(c2c(-c3ccccc3)c3cc(Br)ccc3[nH]c2=O)CC1c1ccc(Br)cc1", "note": "(centres unmarked) [CCT020312, 6-bromo-3-[5-(4-bromo-phenyl)-1-(3-diethylamino-propionyl)-4,5-dihydro-1H-pyrazol-3-yl]-4-phenyl-1H-quinolin-2-one]", "values": [
      {"measurement": "total tau protein (HT7)", "setting": "tau", "value": "not altered"},
      {"measurement": "AD2 (p-Ser-396 and 404) tau phosphorylation", "setting": "tau; vs annonacin alone", "value": "significantly reduced"},
      {"measurement": "CP13 (p-Ser-202) tau phosphorylation", "setting": "tau; vs annonacin alone", "value": "significantly reduced"},
      {"measurement": "MC1 pathological tau conformation", "setting": "tau; vs annonacin alone", "value": "reversed; also recorded: averted"},
      {"measurement": "annonacin-induced increase of splicing factor SRSF2", "setting": "[1]", "value": "significantly reduced"},
      {"measurement": "4R-tau mRNA amount", "setting": "[1]; 48 h", "value": "reduced"},
      {"measurement": "death or obvious signs of sickness during treatment", "setting": "[2]; aged wild type and P301S tau mice, 2 mg/kg once daily for 6 weeks, until 23 weeks of age", "value": "no CCT020312-treated wild type (n=9) and P301S tau mouse (n=12) died during the treatment period or showed any obvious signs of sickness"},
      {"measurement": "death or obvious signs of sickness during treatment", "setting": "[2]; young wild type and P301S tau mice, 2 mg/kg for 6 weeks", "value": "No CCT020312-treated mouse of the wild type group (N=8) and of the P301S tau group (N=8) died during the treatment period or showed any obvious signs of sickness"}
    ]}
  ]
}
